In paper PMC6479757, “Coralmycin Derivatives with Potent Anti-Gram Negative Activity Produced by the Myxobacteria Corallococcus coralloides M23” (Molecules, 2019):
pIC50: −log10 of the molar value. Values after ≈ are worked out from the molar mass of the structure shown. Where two headings read alike, the source gives them in different places.

Key:
[1] = test system: Klebsiella pneumoniae KCTC 22057; assay: Antibacterial susceptibility, broth microdilution MIC; type: cell-based; details: for MIC: KCTC22057, Klebsiella pneumoniae KCTC 22057, 24-h incubation at 37 °C; for growth inhibition of K. pneumonia: at 32 μg/mL
Method: (§1) Whole-cell antimicrobial activities were determined using a broth microdilution method described previously. Most of the test strains were grown to mid-log phase in Mueller–Hinton broth and diluted 1,000-fold in the same medium. Cells (10^5/mL) were dispensed at 0.2 mL/well in 96-well microtiter plates. Streptococcus pneumonia and Acinetobacter baumanii were grown in Todd–Hewitt medium and nutrient broth, respectively. […]. Cells were treated with 0.05% DMSO as a vehicle control. The MICs were determined in triplicate by serial two-fold dilutions of the test compounds. […] Bacterial growth was determined by measuring the absorption at 650 nm using a microtiter enzyme-linked immunosorbent assay (ELISA) reader (Molecular Devices Corporation, Sunnyvale, CA, USA).

MRSA CCARM 3506 = assay: as above; type: cell-based; details: Staphylococcus aureus, 24-h incubation at 37 °C
Method: as §1

QRSA CCARM 3505 = assay: as above; type: cell-based; details: Staphylococcus aureus
Method: as §1

[2] = test system: Enterococcus faecalis KCTC 5191; assay: as above; type: cell-based; details: KCTC5191, 24-h incubation at 37 °C
Method: as §1

[3] = test system: Streptococcus pneumonia KCTC 5412; assay: as above; type: cell-based; details: Streptococcus pneumoniae, KCTC5412, Todd–Hewitt medium, 24-h incubation at 37 °C
Method: as §1

[4] = test system: Acinetobacter baumannii KCTC 2508; assay: as above; type: cell-based; details: KCTC2508, nutrient broth, 24-h incubation at 37 °C
Method: as §1

QRSA CCARM 3519 = assay: as above; type: cell-based; details: Staphylococcus aureus
Method: as §1

E. coli KCTC 1682 = assay: as above; type: cell-based; details: Escherichia coli
Method: as §1

[5] = test system: Pseudomonas aeruginosa KCTC 2004; assay: as above; type: cell-based; details: for MIC: KCTC2004, Pseudomonas aeruginosa KCTC 2004, 24-h incubation at 37 °C; for antibacterial activities against P. aeruginosa: in words
Method: as §1

E. coli CCARM 1356 = assay: as above; type: cell-based; details: Escherichia coli, CCARM1356, 24-h incubation at 37 °C
Method: as §1

E. coli DNA gyrase = target: T1, E. coli DNA gyrase (Escherichia coli, UniProt P0AES4+P0AES6); assay: DNA gyrase supercoiling assay; type: biochemical
T1 construct: purchased TopoGEN TG2001G
T1 sequence (P0AES4 whole entry, one chain of several): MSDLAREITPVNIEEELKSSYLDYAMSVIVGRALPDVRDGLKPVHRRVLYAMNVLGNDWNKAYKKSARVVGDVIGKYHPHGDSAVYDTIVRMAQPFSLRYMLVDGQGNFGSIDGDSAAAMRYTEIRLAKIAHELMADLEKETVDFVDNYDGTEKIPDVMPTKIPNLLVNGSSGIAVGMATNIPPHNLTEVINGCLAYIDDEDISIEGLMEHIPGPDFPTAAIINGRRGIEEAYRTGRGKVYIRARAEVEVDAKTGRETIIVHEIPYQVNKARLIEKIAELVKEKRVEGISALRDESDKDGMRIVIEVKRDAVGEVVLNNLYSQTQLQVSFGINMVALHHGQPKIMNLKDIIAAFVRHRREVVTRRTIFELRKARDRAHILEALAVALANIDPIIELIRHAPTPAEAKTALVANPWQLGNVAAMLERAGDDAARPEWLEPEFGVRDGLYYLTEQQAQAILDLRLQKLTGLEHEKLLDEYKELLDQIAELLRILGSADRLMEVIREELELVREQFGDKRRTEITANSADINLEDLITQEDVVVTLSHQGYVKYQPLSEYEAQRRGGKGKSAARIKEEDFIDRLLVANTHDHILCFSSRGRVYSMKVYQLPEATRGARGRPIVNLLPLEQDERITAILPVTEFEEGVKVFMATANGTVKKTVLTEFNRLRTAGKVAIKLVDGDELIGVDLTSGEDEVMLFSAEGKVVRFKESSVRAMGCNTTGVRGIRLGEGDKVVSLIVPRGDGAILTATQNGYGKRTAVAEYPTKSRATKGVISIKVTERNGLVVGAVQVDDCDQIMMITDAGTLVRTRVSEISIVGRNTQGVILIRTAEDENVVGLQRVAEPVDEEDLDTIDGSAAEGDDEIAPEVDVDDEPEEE
Method: The inhibitory activities of coralmycins on the supercoiling activity of DNA gyrase were investigated using a ‘Purified E. coli DNA Gyrase Drug Screening Kit’ (TopoGEN #TG2001G, Buena Vista, CO, USA). […] The reaction was terminated by the addition of 2 μL of 10% (w/v) SDS and 2 μL of 10× DNA gel loading dye (bromophenol blue). Then, 20 μL of chloroform:isoamyl alcohol (24:1 mixture) was added, and the mixture was vortexed and then centrifuged. The samples in the blue phase were run on 1% (w/v) agarose gel and were visualized using ethidium bromide. All reactions were performed in triplicate. To calculate the IC50 values, the band densities were measured using ImageJ (National Institutes of Health, Bethesda, Maryland, MD, USA).

[6] = test system: Staphylococcus aureus RN 4220; assay: Antibacterial susceptibility, broth microdilution MIC; type: cell-based; details: RN4220, 24 h
Method: (§2) Whole-cell antimicrobial activities were determined using a broth microdilution method described previously. Most of the test strains were grown to mid-log phase in Mueller–Hinton broth and diluted 1,000-fold in the same medium. Cells (10^5/mL) were dispensed at 0.2 mL/well in 96-well microtiter plates. Streptococcus pneumonia and Acinetobacter baumanii were grown in Todd–Hewitt medium and nutrient broth, respectively. […] Cells were treated with 0.05% DMSO as a vehicle control. The MICs were determined in triplicate by serial two-fold dilutions of the test compounds. […] Bacterial growth was determined by measuring the absorption at 650 nm using a microtiter enzyme-linked immunosorbent assay (ELISA) reader (Molecular Devices Corporation, Sunnyvale, CA, USA).

MRSA CCARM 3167 = assay: as above; type: cell-based; details: Staphylococcus aureus, 24-h incubation at 37 °C
Method: as §1

Gram-negative bacteria = assay: Antibacterial activity against Gram-negative bacteria; type: cell-based; details: at 32 μg/mL
Method: as §2

tested bacterial strains = assay: Antibacterial activity against all tested strains; type: cell-based; details: at 32 μg/mL
Method: as §2

[7] = KCTC1682, 24-h incubation at 37 °C, Table 6 and Table S1, read-out: MIC
[8] = KCTC1682, Table 7, read-out: MIC, antibacterial activity on E. coli KCTC 1682
[9] = relaxed plasmid, 37 °C for 30 min, agarose gel band densities, read-out: IC50, inhibition of the supercoiling activity of E. coli DNA gyrase
[10] = CCARM3505, QRSA CCARM 3505, 24-h incubation at 37 °C, read-out: MIC
[11] = CCARM3519, QRSA CCARM 3519, 24-h incubation at 37 °C, read-out: MIC
[12] = KCTC1682, 24 h, Table 7, read-out: MIC, antibacterial activity on E. coli KCTC 1682

SMILES	MIC [1]	MIC (MRSA CCARM 3506)	MIC [2]	MIC [3]	MIC [4]	MIC (E. coli KCTC 1682; [7])	MIC (E. coli KCTC 1682; [8])	MIC [5]	MIC (E. coli CCARM 1356)	pIC50 (E. coli DNA gyrase; [9])	MIC [6]	MIC (QRSA CCARM 3505; [10])	MIC (MRSA CCARM 3167)	MIC (QRSA CCARM 3519; [11])	further results
O=C(O)c1cn(C2CC2)c2cc(N3CCNCC3)c(F)cc2c1=O [Cip, Ciprofloxacin, reference compound]	0.015 µg/mL (≈ 0.0453 µM)	2 µg/mL (≈ 6.04 µM)	0.5 µg/mL (≈ 1.51 µM)	0.25 µg/mL (≈ 0.754 µM)	0.25 µg/mL (≈ 0.754 µM)	0.06 µg/mL (≈ 0.181 µM)	0.06 µg/mL (≈ 0.181 µM)	0.03 µg/mL (≈ 0.0905 µM)	64 µg/mL (≈ 193 µM)	–	–	–	–	–	MIC (QRSA CCARM 3505; CCARM3505, 24 h): 128 µg/mL (≈ 386 µM); MIC (QRSA CCARM 3519; CCARM3519, 24 h): 128 µg/mL (≈ 386 µM)
CO[C@@H](C(=O)O)[C@H](NC(=O)c1ccc(NC(=O)c2ccc([N+](=O)[O-])cc2)cc1)C(=O)Nc1ccc(C(=O)Nc2ccc(C(=O)Nc3ccc(C(=O)O)cc3OC(C)C)c(O)c2OC(C)C)cc1 [Compound 1, Coralmycin C]	> 32 µg/mL	4 µg/mL (≈ 4.34 µM)	8 µg/mL (≈ 8.69 µM)	4 µg/mL (≈ 4.34 µM)	> 32 µg/mL	> 32 µg/mL	> 32 µg/mL	> 32 µg/mL	> 32 µg/mL	6.38	4 µg/mL (≈ 4.34 µM)	4 µg/mL (≈ 4.34 µM)	4 µg/mL (≈ 4.34 µM)	4 µg/mL (≈ 4.34 µM)	antibacterial activity against Gram-negative bacteria (Gram-negative bacteria): no antibacterial activity
CO[C@@H](C(N)=O)[C@H](NC(=O)c1ccc(NC(=O)c2ccc(N)cc2)cc1)C(=O)Nc1ccc(C(=O)Nc2ccc(C(=O)Nc3ccc(C(=O)O)cc3OC(C)C)c(O)c2OC(C)C)cc1 [Compound 2, Coralmycin D]	> 32 µg/mL	0.5 µg/mL (≈ 0.562 µM)	1 µg/mL (≈ 1.12 µM)	2 µg/mL (≈ 2.25 µM)	4 µg/mL (≈ 4.49 µM)	1 µg/mL (≈ 1.12 µM)	1 µg/mL (≈ 1.12 µM)	> 32 µg/mL	1 µg/mL (≈ 1.12 µM)	6.29	0.25 µg/mL (≈ 0.281 µM)	1 µg/mL (≈ 1.12 µM)	0.5 µg/mL (≈ 0.562 µM)	1 µg/mL (≈ 1.12 µM)	growth inhibition of K. pneumonia [1]: did not inhibit the growth; growth inhibition of P. aeruginosa ([5]; at 32 μg/mL): did not inhibit the growth
CO[C@@H](C(N)=O)[C@H](NC(=O)c1ccc(N)cc1)C(=O)Nc1ccc(C(=O)Nc2ccc(C(=O)Nc3ccc(C(=O)O)cc3OC(C)C)c(O)c2OC(C)C)cc1 [Compound 3, Coralmycin E]	> 32 µg/mL	> 32 µg/mL	> 32 µg/mL	> 32 µg/mL	> 32 µg/mL	> 32 µg/mL	> 32 µg/mL	> 32 µg/mL	> 32 µg/mL	4.41	> 32 µg/mL	> 32 µg/mL	> 32 µg/mL	> 32 µg/mL	antibacterial activities against any of the tested bacterial strains (tested bacterial strains): no antibacterial activities
CCOc1cc(C(=O)O)ccc1NC(=O)c1ccc(NC(=O)c2ccc(N)cc2)c(OCC)c1O [Compound 4, Coralmycin F]	> 32 µg/mL	> 32 µg/mL	> 32 µg/mL	> 32 µg/mL	> 32 µg/mL	> 32 µg/mL	> 32 µg/mL	> 32 µg/mL	> 32 µg/mL	–	> 32 µg/mL	> 32 µg/mL	> 32 µg/mL	> 32 µg/mL	pIC50 (E. coli DNA gyrase): < 3.52
COc1cc(C(=O)O)ccc1NC(=O)c1ccc(NC(=O)c2ccc(N)cc2)c(OC(C)C)c1O [Compound 5, Coralmycin G]	> 32 µg/mL	> 32 µg/mL	> 32 µg/mL	> 32 µg/mL	> 32 µg/mL	> 32 µg/mL	–	> 32 µg/mL	> 32 µg/mL	–	> 32 µg/mL	> 32 µg/mL	> 32 µg/mL	> 32 µg/mL	–
CCOc1c(NC(=O)c2ccc(N)cc2)ccc(C(=O)Nc2ccc(C(=O)O)cc2OC(C)C)c1O [Compound 6, Coralmycin H]	> 32 µg/mL	> 32 µg/mL	> 32 µg/mL	> 32 µg/mL	> 32 µg/mL	> 32 µg/mL	–	> 32 µg/mL	> 32 µg/mL	–	> 32 µg/mL	> 32 µg/mL	> 32 µg/mL	> 32 µg/mL	–
CCOc1cc(C(=O)O)ccc1NC(=O)c1ccc(NC(=O)c2ccc(N)cc2)c(OC(C)C)c1O [Compound 7, Coralmycin I]	> 32 µg/mL	> 32 µg/mL	> 32 µg/mL	> 32 µg/mL	> 32 µg/mL	> 32 µg/mL	–	> 32 µg/mL	> 32 µg/mL	–	> 32 µg/mL	> 32 µg/mL	> 32 µg/mL	> 32 µg/mL	–
COc1cc(C(=O)O)ccc1NC(=O)c1ccc(NC(=O)c2ccc(NC(=O)[C@@H](NC(=O)c3ccc(NC(=O)c4ccc([N+](=O)[O-])cc4)cc3)[C@@H](OC)C(N)=O)cc2)c(OC(C)C)c1O [Compound 8, cystobactamid 891-2]	> 32 µg/mL	0.125 µg/mL (≈ 0.14 µM)	1 µg/mL (≈ 1.12 µM)	2 µg/mL (≈ 2.24 µM)	1 µg/mL (≈ 1.12 µM)	0.25 µg/mL (≈ 0.28 µM)	–	4 µg/mL (≈ 4.49 µM)	0.5 µg/mL (≈ 0.561 µM)	7.30	0.25 µg/mL (≈ 0.28 µM)	2 µg/mL (≈ 2.24 µM)	0.5 µg/mL (≈ 0.561 µM)	1 µg/mL (≈ 1.12 µM)	growth inhibition of K. pneumonia [1]: did not inhibit the growth; MIC (E. coli KCTC 1682; [12]): 0.25 µg/mL (≈ 0.28 µM); antibacterial activities against P. aeruginosa [5]: weak antibacterial activities
CCOc1cc(C(=O)O)ccc1NC(=O)c1ccc(NC(=O)c2ccc(NC(=O)[C@@H](NC(=O)c3ccc(NC(=O)c4ccc([N+](=O)[O-])cc4)cc3)[C@@H](OC)C(N)=O)cc2)c(OC(C)C)c1O [Compound 9, cystobactamid 905-2]	> 32 µg/mL	0.25 µg/mL (≈ 0.276 µM)	0.5 µg/mL (≈ 0.552 µM)	1 µg/mL (≈ 1.1 µM)	0.5 µg/mL (≈ 0.552 µM)	0.5 µg/mL (≈ 0.552 µM)	–	8 µg/mL (≈ 8.83 µM)	1 µg/mL (≈ 1.1 µM)	6.89	0.125 µg/mL (≈ 0.138 µM)	2 µg/mL (≈ 2.21 µM)	0.25 µg/mL (≈ 0.276 µM)	1 µg/mL (≈ 1.1 µM)	growth inhibition of K. pneumonia [1]: did not inhibit the growth; MIC (E. coli KCTC 1682; [12]): 0.25 µg/mL (≈ 0.276 µM); antibacterial activities against P. aeruginosa [5]: weak antibacterial activities
CO[C@@H](C(N)=O)[C@H](NC(=O)c1ccc(NC(=O)c2ccc([N+](=O)[O-])cc2)cc1)C(=O)Nc1ccc(C(=O)Nc2ccc(C(=O)Nc3ccc(C(=O)O)cc3OC(C)C)c(O)c2OC(C)C)cc1 [Compound 11, cystobactamid 919-2, reference compound]	4 µg/mL (≈ 4.35 µM)	0.25 µg/mL (≈ 0.272 µM)	0.25 µg/mL (≈ 0.272 µM)	1 µg/mL (≈ 1.09 µM)	2 µg/mL (≈ 2.17 µM)	1 µg/mL (≈ 1.09 µM)	1 µg/mL (≈ 1.09 µM)	4 µg/mL (≈ 4.35 µM)	2 µg/mL (≈ 2.17 µM)	6.02	0.125 µg/mL (≈ 0.136 µM)	1 µg/mL (≈ 1.09 µM)	0.25 µg/mL (≈ 0.272 µM)	1 µg/mL (≈ 1.09 µM)	–
CO[C@H](C(=O)O)[C@H](NC(=O)c1ccc(NC(=O)c2ccc([N+](=O)[O-])cc2)cc1)C(=O)Nc1ccc(C(=O)Nc2ccc(C(=O)Nc3ccc(C(=O)O)cc3OC(C)C)c(O)c2OC(C)C)cc1 [Compound 13, coralmycin B, reference compound]	> 16 µg/mL	1 µg/mL (≈ 1.09 µM)	4 µg/mL (≈ 4.34 µM)	> 16 µg/mL	4 µg/mL (≈ 4.34 µM)	4 µg/mL (≈ 4.34 µM)	4 µg/mL (≈ 4.34 µM)	> 16 µg/mL	16 µg/mL (≈ 17.4 µM)	5.97	2 µg/mL (≈ 2.17 µM)	–	1 µg/mL (≈ 1.09 µM)	–	–
